Experimental data from US10723764B2, “Anti-microbial peptides and methods of use thereof” (priority 2011, dated 2020).
Values after ≈ are worked out from the molar mass of the structure shown. Where a SMILES comes first, the peptide text is derived from it. [ ]: non-standard residue; d: D form. Bip = N[C@@H](Cc1ccc(-c2ccccc2)cc1)C(=O)O

Experiments:
[1] = test system: E. faecium ATCC51559; assay type: cell-based, Enterococcus faecium; conditions: ATCC51559
Experimental: (§1) The antibacterial activities of the peptides were determined using the standard broth microdilution method (Mishra et al. (2012) J. Am. Chem. Soc., 134:12426-12429; Wang et al. (2005) Biol. Chem., 280:5803-5811). Briefly, the bacterial culture was treated with a series of peptide solutions, each with two-fold dilution. After overnight incubation at 37° C., the microplate was read on a ChroMate® 4300 Microplate Reader at 630 nm (GMI, Ramsey, Minn.).

[2] = test system: Pseudomonas aeruginosa PAO1; assay type: cell-based
Experimental: The bacterial strains used in the study are Bacillus subtilis 168, methicillin-resistant Staphylococcus aureus USA300 LAC (Gram-positive), Escherichia coli K12, and Pseudomonas aeruginosa PAO1 (Gram negative). The antibacterial activities of the peptides were determined using the standard broth microdilution method (Wang et al. (2005) J. Biol. Chem., 280:5803-5811). In brief, the bacterial culture (90 μL) was treated with a series of peptide solutions (10 μL), each with two-fold dilution. After overnight incubation at 37° C., the microplate was read on a ChroMate® 4300 Microplate Reader at 630 nm (GMI, Ramsey, Minn.).
For the initial screen, antimicrobial activities of these peptides against S. aureus and E. coli were evaluated using the standard broth microdilution protocol (Wang, G. (2008) J. Biol. Chem., 283:32637-43). […] Subsequently, the in vitro activity of these six peptides was evaluated against Bacillus subtilis and Pseudomonas aeruginosa (Table 6). […] While maculatin 1.3 is active against two Gram-positive but not two Gram-negative bacterial strains, DASamP1 is species-specific since it active only against S. aureus. The finding that ascaphin-8, […], and piscidin 1 are wide-spectrum AMPs agrees with the literature (Apponyi et al. (2004) Peptides 25:1035-1054; Conlon et al. (2004) Biochem. Biophys. Res. Commun., 320:170-175; Silphaduang et al. (2001) Nature 414:268-269; Souza et al. (2005) J. Immunol., 186:6585-6596). For lycotoxin I, it was previously found to active against Gram-negative E. coli and yeast (Yan et al. (1998) J. Biol. Chem., 273:2059-2066).
as §1

[3] = test system: Escherichia coli K12; conditions: Table 8
[4] = target: chymotrypsin (Bos taurus, UniProt P00766); assay: Peptide stability to chymotrypsin by SDS-PAGE; assay type: in vitro ADME, bovine; conditions: during 4 hours
Experimental: A solution (100 μl) of the peptide and 12.5 μM chymotrypsin (peptide/protein molar ratio, 40:1) in 10 mM PBS buffer (pH 8) was incubated at 37° C. Aliquots (10 μl) of the reaction solutions were taken at 0, 2, 4, and 22 hours and immediately mixed with 20 μl of 2×SDS loading buffer to stop the reaction. For the gel analysis, 10 μl of each sample was loaded to the well of a 5% stacking/18% resolving tricine gel. The samples in the lanes are: 1, protein marker; 2, temporin-PTa L-form at 0 hour; 3, 2 hours; 4, 4 hours; 5, 22 hours; 6, temporin-PTa D-form at 0 hour; 7, 2 hours; 8, 4 hours; 9, 22 hours. In the gel, the bands for the peptide and chymotrypsin were indicated with large and small arrows, respectively. Note that the peptide bands were not detected in lanes 3-5 due to protease cleavage but remained essentially constant in lanes 7-9.
Peptide stability was evaluated using standard SDS-PAGE (described in FIG. 5).
(§2) Peptide stability was evaluated based on a published protocol (Mishra et al. (2012) J. Am. Chem. Soc., 134:12426-12429) with one modification. Aliquots (10 μL) of the reaction solutions (peptide/protease molar ratio, 40:1) in 10 mM PBS buffer (pH 8) at 37° C. were taken at 0, 6, and 24 hours and immediately mixed with 10 μL of 2×SDS loading buffer followed by boiling for 5 minutes to stop the reaction. Samples were analyzed using 5% stacking/18% resolving tricine gel.

[5] = target: fungal protease K (Parengyodontium album, UniProt P06873); assay: Peptide stability to fungal protease K by SDS-PAGE; assay type: in vitro ADME; conditions: peptide/protease 40:1, PBS pH 8, 37° C.
Experimental: (§3) FIG. 10 provides a stability comparison of synthetic 17BIPHE2 with GF-17 in the presence of bovine chymotrypsin, porcine trypsin, S. aureus protease V8, and fungal protease K. Two samples were analyzed in this gel for each protease: 0 and 6 hours for GF-17 and 0 and 24 hours for 17BIPHE2.
as §2

[6] = target: S. aureus V8 protease (Staphylococcus aureus, UniProt P0C1U8); assay type: in vitro ADME; conditions: peptide/protease 40:1, PBS pH 8, 37° C.
Experimental: as §3, §2

[7] = test system: ESKAPE pathogens; assay type: cell-based
Experimental: as §1
A rational design was conducted on the basis of the 3D structure of GF-17d3. […] The noncoherent packing of the GF-17d3 side chains caused a hydrophobic defect in the structure (FIGS. 8C and 8D, arrow), leading to reduced hydrophobicity. Accordingly, it was hypothesized that the antimicrobial activity of this peptide 17F2 (sequence GX1KRLVQRLKDX2LRNLV (SEQ ID NO: 58), Table 9) could be enhanced by filling in the hydrophobic cavity (FIG. 8D, arrow) with a larger hydrophobic side chain. The antimicrobial activities of these peptide analogues were evaluated using the standard microdilution assays (Mishra et al. (2012) J. Am. Chem. Soc., 134:12426-12429), and the minimal inhibitory concentrations (MIC) against a panel of the ESKAPE pathogens are provided in Table 10. […] To compare the two sites, these two substitutions at positions X1 and X2 were swapped to obtain 17Naph-mF. […] In addition, biphenylalanines were incorporated at position X1 alone or at both X1 and X2 of the 17F2 template. […] The killing abilities of these peptides are essentially proportional to their MIC values as well as retention times (a measure of hydrophobicity) on a reverse-phase HPLC column (Mishra et al. (2012) J. Am. Chem. Soc., 134:12426-12429).

[8] = test system: methicillin-resistant Staphylococcus aureus USA300 LAC
Experimental: This was done by modifying the standard microdilution antimicrobial assays (Wang, G. (2008) J. Biol. Chem., 283:32637-32643). Specifically, the bacterial wells with a high peptide concentration (e.g. 100 μM) are duplicated (e.g., two for antimicrobial assays and two for protease stability assays). As an illustration, chymotrypsin was applied to the duplicated wells at a peptide:protease molar ratio of 25:1.

[9] = test system: E. cloacae B2366-12; assay type: cell-based; conditions: B2366-12
Experimental: as §1

[10] = test system: A. baumannii B2367-12; assay type: cell-based, Acinetobacter baumanii
Experimental: as §1

[11] = test system: human erythrocytes

Chain of fungal protease K (P06873 106-384): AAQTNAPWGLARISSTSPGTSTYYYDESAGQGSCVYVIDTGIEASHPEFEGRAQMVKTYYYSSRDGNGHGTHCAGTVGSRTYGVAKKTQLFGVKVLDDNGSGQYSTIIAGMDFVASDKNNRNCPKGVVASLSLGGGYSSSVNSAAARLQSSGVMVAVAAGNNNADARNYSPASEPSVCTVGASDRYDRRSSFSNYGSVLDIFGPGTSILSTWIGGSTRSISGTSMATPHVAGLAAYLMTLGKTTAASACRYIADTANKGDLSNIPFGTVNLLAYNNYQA
Chain of S. aureus V8 protease (P0C1U8 69-336): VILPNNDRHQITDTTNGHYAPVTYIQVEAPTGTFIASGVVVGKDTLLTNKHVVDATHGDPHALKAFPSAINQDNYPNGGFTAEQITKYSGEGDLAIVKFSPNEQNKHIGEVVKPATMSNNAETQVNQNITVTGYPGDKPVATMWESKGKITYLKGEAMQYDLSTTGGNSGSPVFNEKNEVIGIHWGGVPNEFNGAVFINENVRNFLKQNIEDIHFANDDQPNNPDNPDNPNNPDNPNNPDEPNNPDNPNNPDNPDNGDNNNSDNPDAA

## CC(C)C[C@H](NC(=O)[C@H](CC(N)=O)NC(=O)[C@H](CCCNC(=N)N)NC(=O)[C@@H](CC(C)C)NC(=O)[C@H](Cc1ccc(-c2ccccc2)cc1)NC(=O)[C@H](CC(=O)O)NC(=O)[C@H](CCCCN)NC(=O)[C@@H](CC(C)C)NC(=O)[C@H](CCCNC(=N)N)NC(=O)[C@H](CCC(N)=O)NC(=O)[C@@H](NC(=O)[C@@H](CC(C)C)NC(=O)[C@H](CCCNC(=N)N)NC(=O)[C@H](CCCCN)NC(=O)[C@H](Cc1ccc(-c2ccccc2)cc1)NC(=O)CN)C(C)C)C(=O)N[C@H](C(N)=O)C(C)C [D128A, GX1KRLVQRLKDX2LRNLV-amide] (H-G[Bip]KR[dL]VQR[dL]KD[Bip][dL]RNLV-NH2)
[1]
  MIC (μM) EF: 3.1 µM (≈ 6.99 µg/mL)
[2]
  MIC (μM) PA: 6.2 µM (≈ 14 µg/mL)
[3]
  E. coli K12 MIC: 2.5 µM
[4]
  level of intact peptide in the presence of chymotrypsin: remained constant
[5]
  time stable in the presence of fungal protease K: at least 24 hours
[6]
  time stable in the presence of S. aureus V8 protease: at least 24 hours
[7]
  MIC against all of the ESKAPE pathogens: 3.1 to 6.2 µM
[8]; S. aureus USA300 LAC, Table 10
  MIC (μM) SA: 3.1 µM (≈ 6.99 µg/mL)
[8]; Table 8
  S. aureus USA 300 MIC: 5 µM
[9]
  MIC (μM) EC: 3.1 µM (≈ 6.99 µg/mL)
[10]
  MIC (μM) AB: 3.1 µM (≈ 6.99 µg/mL)
[11]; Table 8
  HL50 (μM), peptide concentration at which 50% human red blood cells were lysed: 150 µM
[11]; Table 10
  HL50 (μM), peptide concentration that causes 50% lysis of human erythrocytes: 225 µM
